Laboratory results published in patent US10689354B2, “Aminoazole derivative” (Teijin Pharma Limited, priority 2015, dated 2020).

Assays:
human androgen receptor = molecular target: T1, human androgen receptor (Homo sapiens, UniProt P10275); assay: Reporter assay of an androgen receptor responsive sequence (luciferase, transiently transfected HEK293 cells); format: cell-based; conditions: 24 hours incubation, relative to activity of 100 nM DHT, read-out: AR transcriptive activity (pEC50) (converted)
T1 construct: expressed in transfected cells; host or cells: HEK293
T1 sequence (P10275 1-920): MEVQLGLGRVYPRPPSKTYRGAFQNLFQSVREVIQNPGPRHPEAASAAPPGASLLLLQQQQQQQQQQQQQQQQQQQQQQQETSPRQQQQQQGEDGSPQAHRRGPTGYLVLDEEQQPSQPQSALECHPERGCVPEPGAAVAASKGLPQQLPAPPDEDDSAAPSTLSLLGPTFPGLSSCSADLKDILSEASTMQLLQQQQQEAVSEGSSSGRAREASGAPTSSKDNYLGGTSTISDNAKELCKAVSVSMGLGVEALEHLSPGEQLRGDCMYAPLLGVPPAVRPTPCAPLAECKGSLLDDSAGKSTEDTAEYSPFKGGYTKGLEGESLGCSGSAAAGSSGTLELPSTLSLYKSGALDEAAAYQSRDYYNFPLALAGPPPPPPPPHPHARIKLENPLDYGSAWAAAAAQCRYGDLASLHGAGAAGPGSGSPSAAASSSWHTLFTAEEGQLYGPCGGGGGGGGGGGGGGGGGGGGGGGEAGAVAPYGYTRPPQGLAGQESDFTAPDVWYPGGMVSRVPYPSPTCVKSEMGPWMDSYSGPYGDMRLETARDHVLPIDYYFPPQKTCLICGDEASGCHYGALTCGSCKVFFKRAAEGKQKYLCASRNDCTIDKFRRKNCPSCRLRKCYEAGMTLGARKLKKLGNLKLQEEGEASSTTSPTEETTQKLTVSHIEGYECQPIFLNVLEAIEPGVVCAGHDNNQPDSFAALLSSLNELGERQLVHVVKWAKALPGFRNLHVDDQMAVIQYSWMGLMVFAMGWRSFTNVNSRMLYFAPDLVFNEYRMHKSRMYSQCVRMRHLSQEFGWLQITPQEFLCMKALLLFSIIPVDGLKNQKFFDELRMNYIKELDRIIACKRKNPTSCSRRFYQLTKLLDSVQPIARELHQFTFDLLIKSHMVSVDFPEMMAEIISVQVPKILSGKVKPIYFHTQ
Procedure: Reporter Assay of an Androgen Receptor Responsive Sequence
To examine the agonist activity of compounds for androgen, a reporter assay using an androgen receptor responsive sequence was conducted.
Using Lipofectamine 2000 (Invitrogen), a plasmid mixture (pGL4-ARE (200 ng/well), pcDNA3-hAR (20 ng/well), pRL-TK (Promega) (150 ng/well)) was transiently transfected into HEK293 cells. The contents of the plasmid (mixture) are as follows:
pGL4-ARE is a reporter plasmid containing firefly luciferase sequence under the control of androgen receptor responsive sequence; pcDNA3-hAR is a plasmid containing full-length sequence of human androgen receptor under the constant control of CMV promoter; pRL-TK is a plasmid containing Renilla Luciferase sequence under the control of herpes simplex virus thymidine kinase and used as an internal standard for evaluations of transfection efficiency and compound toxicity.
After the incubation of Lipofectamine 2000 and the plasmid mixture in Opti-MEM for 20 minutes, the mixture was mixed with a cell suspension prepared with Opti-MEM in the similar way, and the cell suspension was plated to a 96-well plate at 20000 cells/well. The transfection was conducted by incubating the plates under the condition of 5% CO2 at 37° C. for 3 hours. Three hours after the transfection, the culture medium was removed and a compound solution prepared by DMEM supplemented with 5% FBS and treated with charcoal was added, and the mixture was incubated under the condition of 5% CO2 at 37° C. for 24 hours. After the incubation with the compound, luciferase activities were measured with a luminometer using Dual-Glo™ Luciferase Assay System (Promega). The measurement of the luciferase activities was performed in accordance with the protocol recommended by Promega. The activity of the compound was determined by comparing to the activity of 100 nM of DHT, and quantified the logarithm value (pEC50) of reciprocal value of the effective concentration of the compound which is equal to 50% of the activity value by applying a 4 parameter goodness-of-fit calculation.

[1] = molecular target: T2, androgen receptor (AR-LBD) (Rattus norvegicus, UniProt P15207); assay: Evaluation of androgen receptor affinity (PolarScreen Androgen Receptor Competitor Assay Kit, Red; fluorescence polarization); conditions: 22° C. for 5 hours, relative to binding rate of 1 μM DHT, read-out: AR affinity (pEC50) (converted)
T2 construct: 5 μL of 2×AR-LBD/Fluoromone AL Red Complex contained in the kit; purchased Invitrogen
T2 sequence (P15207 651-882 limits assumed): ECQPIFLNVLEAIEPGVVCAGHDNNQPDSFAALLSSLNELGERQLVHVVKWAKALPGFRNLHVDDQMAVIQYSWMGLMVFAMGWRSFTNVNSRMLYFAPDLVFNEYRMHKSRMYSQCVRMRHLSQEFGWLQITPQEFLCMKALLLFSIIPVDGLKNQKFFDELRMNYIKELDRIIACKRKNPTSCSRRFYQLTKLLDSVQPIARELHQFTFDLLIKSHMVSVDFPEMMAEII
In short: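 Duplicate wells; compound plus AR-LBD tracer complex incubated 22° C for 5 h, then FP measured. Effect compared with 1 μM DHT; 50%-effect concentration expressed as pEC50.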

Structure (SMILES) | EC50 (human androgen receptor) [µM] | EC50 [1] [µM]
Cc1sc(N(Cc2ccc(C(F)F)c(F)c2)c2ccc(C#N)cc2)nc1C(=O)NS(C)(=O)=O [Compound 155, 2-[4-cyano-N-[[4-(difluoromethyl)-3-fluoro-phenyl]methyl]anilino]-5-methyl-N-methylsulfonyl-thiazole-4-carboxamide] | 0.0158 | 0.0316
Cc1sc(N(Cc2cccc3cccnc23)c2ccc(C#N)cc2)nc1C(=O)NS(C)(=O)=O [Compound 390, 2-[4-cyano-N-(8-quinolylmethyl)anilino]-5-methyl-N-methylsulfonyl-thiazole-4-carboxamide] | 0.2 | 0.126
COCCCS(=O)(=O)NC(=O)c1nc(N(Cc2ccc(OC(F)F)c(F)c2)c2ccc(C#N)cc2)sc1C [Compound 526, 2-[4-cyano-N-[[4-(difluoromethoxy)-3-fluoro-phenyl]methyl]anilino]-N-(3-methoxypropylsulfonyl)-5-methyl-thiazole-4-carboxamide] | 0.1 | 0.0398
Cc1sc(N(Cc2ccc3c(c2)C(=O)CCO3)c2ccc(C#N)cc2)nc1C(=O)NS(C)(=O)=O [Compound 138, 2-[4-cyano-N-[(4-oxochroman-6-yl)methyl]anilino]-5-methyl-N-methylsulfonyl-thiazole-4-carboxamide] | 0.251 | 0.1
Cc1nc(CN(CCc2ccc(Cl)cc2)c2nc(C(=O)NS(C)(=O)=O)c(C)o2)cs1 [Compound 546, 2-[2-(4-chlorophenyl)ethyl-[(2-methylthiazol-4-yl)methyl]amino]-5-methyl-N-methylsulfonyl-oxazole-4-carboxamide] | 1.58 | 0.2
Cc1sc(N(Cc2cc3ccccc3s2)c2ccc(C#N)cc2)nc1C(=O)NS(C)(=O)=O [Compound 51, 2-[N-(benzothiophen-2-ylmethyl)-4-cyano-anilino]-5-methyl-N-methylsulfonyl-thiazole-4-carboxamide] | 0.0316 | 0.0501
Cc1oc(N(CCc2ccc(C#N)cc2)Cc2ccc(OC(F)F)cc2)nc1C(=O)NS(C)(=O)=O [Compound 553, 2-[2-(4-cyanophenyl)ethyl-[[4-(difluoromethoxy)phenyl]methyl]amino]-5-methyl-N-methylsulfonyl-oxazole-4-carboxamide] | 0.316 | 0.0316
Cc1sc(N(CCc2ccc(C#N)cc2)Cc2ccc(OC(F)(F)F)cc2)nc1C(=O)NS(=O)(=O)Cc1cccc(F)c1 [Compound 727, 2-[2-(4-cyanophenyl)ethyl-[[4-(trifluoromethoxy)phenyl]methyl]amino]-N-[(3-fluorophenyl)methylsulfonyl]-5-methyl-thiazole-4-carboxamide] | > 10 | 0.2
Cc1sc(N(CCc2ccc(C#N)cc2)Cc2ccc(OC(F)(F)F)cc2)nc1C(=O)NS(=O)(=O)C1CC1 [Compound 721, 2-[2-(4-cyanophenyl)ethyl-[[4-(trifluoromethoxy)phenyl]methyl]amino]-N-cyclopropylsulfonyl-5-methyl-thiazole-4-carboxamide] | > 10 | 0.158
COCCCS(=O)(=O)NC(=O)c1nc(N(CCc2ccc(OC(F)(F)F)cc2)Cc2ccc(C(F)(F)F)nc2)oc1C [Compound 565, N-(3-methoxypropylsulfonyl)-5-methyl-2-[2-[4-(trifluoromethoxy)phenyl]ethyl-[[6-(trifluoromethyl)-3-pyridyl]methyl]amino]oxazole-4-carboxamide] | 2 | 0.0631
Cc1oc(N(CCc2ccc(C#N)cc2)Cc2ccc(F)cc2Cl)nc1C(=O)NS(C)(=O)=O [Compound 554, 2-[(2-chloro-4-fluoro-phenyl)methyl-[2-(4-cyanophenyl)ethyl]amino]-5-methyl-N-methylsulfonyl-oxazole-4-carboxamide] | 0.794 | 0.0398
CS(=O)(=O)NC(=O)c1nc(N(Cc2ccc(OC(F)F)cc2)c2ccc(C#N)cc2)sc1C1CC1 [Compound 662, 2-[4-cyano-N-[[4-(difluoromethoxy)phenyl]methyl]anilino]-5-cyclopropyl-N-methylsulfonyl-thiazole-4-carboxamide] | 5.01 | 0.02
CSc1cccc(CN(c2ccc(C#N)cc2)c2nc(C(=O)NS(C)(=O)=O)c(C)s2)c1 [Compound 431, 2-[4-cyano-N-[(3-methylsulfanylphenyl)methyl]anilino]-5-methyl-N-methylsulfonyl-thiazole-4-carboxamide] | 0.316 | 0.02
CS(=O)(=O)NC(=O)c1csc(N(Cc2ccccc2)c2ccc(C#N)cc2)n1 [Compound 597, 2-(N-benzyl-4-cyano-anilino)-N-methylsulfonyl-thiazole-4-carboxamide] | 1 | 0.398
Cc1sc(N(Cc2ccc(OC(F)(F)F)cc2)c2ccc(C#N)cc2)nc1C(=O)NS(C)(=O)=O [Compound 7, 2-[4-cyano-N-[[4-(trifluoromethoxy)phenyl]methyl]anilino]-5-methyl-N-methylsulfonyl-thiazole-4-carboxamide] | 0.0631 | 0.0316
Cc1nc(CN(CCc2ccc(OC(F)(F)F)cc2)c2nc(C(=O)NS(C)(=O)=O)c(C)s2)cs1 [Compound 507, 5-methyl-N-methylsulfonyl-2-[(2-methylthiazol-4-yl)methyl-[2-[4-(trifluoromethoxy)phenyl]ethyl]amino]thiazole-4-carboxamide] | 0.501 | 0.0398
CS(=O)(=O)NC(=O)c1nc(N(Cc2ccc(C(F)(F)F)nc2)c2ccc(C#N)cc2)sc1C1CC1 [Compound 659, 2-[4-cyano-N-[[6-(trifluoromethyl)-3-pyridyl]methyl]anilino]-5-cyclopropyl-N-methylsulfonyl-thiazole-4-carboxamide] | > 10 | 0.126
Cc1ccc(CN(c2ccc(C#N)cc2)c2nc(C(=O)NS(C)(=O)=O)c(C)s2)cc1F [Compound 115, 2-[4-cyano-N-[(3-fluoro-4-methyl-phenyl)methyl]anilino]-5-methyl-N-methylsulfonyl-thiazole-4-carboxamide] | 0.0316 | 0.0316
CS(=O)(=O)NC(=O)c1nc(N(Cc2cccc(OC(F)F)c2)c2ccc(C#N)cc2)sc1Br [Example 255, 5-bromo-2-[4-cyano-N-[[3-(difluoromethoxy)phenyl]methyl]anilino]-N-methylsulfonyl-thiazole-4-carboxamide] | 0.0794 | 0.0501
Cc1sc(N(Cc2ccc(Cl)cc2)[C@H]2C[C@@H]2c2ccccc2)nc1C(=O)NS(C)(=O)=O (racemic) [Compound 150, 2-[(4-chlorophenyl)methyl-(trans-2-phenylcyclopropyl)amino]-5-methyl-N-methylsulfonyl-thiazole-4-carboxamide] | 0.631 | 0.0794
